Experimental data as given in patent US9796727B2, “Field effect transistor” (Nippon Kayaku Kabushiki Kaisha, priority 2009, dated 2017).
In brackets after ≈: the same amount, converted by molar mass.

Experiment: Solubility measurement in toluene
Assay type: physicochemical
Settings: 60° C.
Description: Example 1: Solubility Measurement
In Table 2, solubility (g/L) in toluene at 60° C. is listed.

Structure (SMILES) | solubility in toluene [µg/mL]
CCCCCCCCCCc1ccc2cc3c(cc2c1)sc1c2cc4ccc(CCCCCCCCCC)cc4cc2sc31 [Compound No. 12, 6,6′-Didecyldinaphtho[2,3-b:2′,3′-f]thieno[3,2-b]thiophen] | 50 (≈ 80.5 µM)
CCCCCCCCc1ccc2cc3c(cc2c1)sc1c2cc4ccc(CCCCCCCC)cc4cc2sc31 [Compound No. 10, 6,6′-dioctyldinaphtho[2,3-b:2′,3′-f]thieno[3,2-b]thiophen] | 60 (≈ 106 µM)
CCCCCCCCCCCCc1ccc2cc3c(cc2c1)sc1c2cc4ccc(CCCCCCCCCCCC)cc4cc2sc31 [Compound No. 14, 6,6′-Didodecyldinaphtho[2,3-b:2′,3′-f]thieno[3,2-b]thiophen] | 40 (≈ 59.1 µM)

Now from value to compound:

solubility in toluene [µg/mL] | Structure (SMILES)
20 (≈ 44.2 µM) | CCCCc1ccc2cc3c(cc2c1)sc1c2cc4ccc(CCCC)cc4cc2sc31 [ref. 2, 6,6′-Dibutyldinaphtho[2,3-b:2′,3′-f]thieno[3,2-b]thiophen, reference compound]
80 (≈ 157 µM) | CCCCCCc1ccc2cc3c(cc2c1)sc1c2cc4ccc(CCCCCC)cc4cc2sc31 [compound 6, 6,6′-Dihexyldinaphtho[2,3-b:2′,3′-f]thieno[3,2-b]thiophen]
≤ 10 | c1ccc2cc3c(cc2c1)sc1c2cc4ccccc4cc2sc31 [ref. 1, dinaphtho[2,3-b:2′,3′-f]thieno[3,2-b]thiophene, reference compound]
